The source made the active and inactive calls. How the calls were made is not given here.

The test system of the series is GENE-TOX genotoxicity assays, various organisms and cells. The series can be described thus: GENE-TOX mutagenicity studies. The settings on record: for call: Assay Type: In vivo carcinogenicity studies. The text has this: GENE-TOX provides genetic toxicology (mutagenicity) test data from expert peer review of open scientific literature for more than 3,000 chemicals from the United States Environmental Protection Agency (EPA). GENE-TOX was established to select assay systems for evaluation, review data in the scientific literature, and recommend proper testing protocols and evaluation procedures for these systems.
GENE-TOX covers the years 1991 - 1998. It is no longer updated.
This is an archive assay for GENE-TOX mutagenicity studies.

[1] abbreviates: Species/Cell Type: Escherichia coli polA (W3119 vs P3478), Assay Type: Rec-assay, DNA effects (bacterial DNA repair), Assay Code: RE1+, Evaluation Type: Evaluation A (Pre-1980).
The mark [2] stands for this setting: Species/Cell Type: Nonhuman, Assay Type: Sister-chromatid exchange (SCE) in vivo, Assay Code: SC3+, Evaluation Type: Evaluation B (Post-1980).
Setting [3] is: Species/Cell Type: Salmonella typhimurium (one or more of the five standard strains: TA98, TA100, TA1535, TA1537, and TA1538), Assay Type: Histidine reverse gene mutation, Ames assay, Assay Code: SAL-, Evaluation Type: Evaluation A (Pre-1980).
[4] abbreviates: Species/Cell Type: Drosophila melanogaster, Assay Type: Sex-linked recessive lethal gene mutation, Assay Code: SRL+, Evaluation Type: Evaluation A (Pre-1980).
[5] abbreviates: Species/Cell Type: Salmonella typhimurium (one or more of the five standard strains: TA98, TA100, TA1535, TA1537, and TA1538), Assay Type: Histidine reverse gene mutation, Ames assay, Assay Code: SAL+, Evaluation Type: Evaluation A (Pre-1980).
[6] abbreviates: Species/Cell Type: Rodents, Sex: Male, Assay Type: Dominant lethal test, Assay Code: DLT-, Evaluation Type: Evaluation A (Pre-1980).
Where [7] appears, read: Species/Cell Type: Salmonella typhimurium (one or more of the five standard strains: TA98, TA100, TA1535, TA1537, and TA1538), Assay Type: Histidine reverse gene mutation, Ames assay, Assay Code: SALT, Evaluation Type: Evaluation A (Pre-1980).
[8] abbreviates: Species/Cell Type: Nonhuman, Assay Code: CCG+, Evaluation Type: Evaluation A (Pre-1980).

Regarding `Cc1ccc2c(c1)cc1ccccc1[n+]2C`, the mutagenic call (Species/Cell Type: Saccharomyces cerevisiae, Assay Type: Forward gene mutation, Assay Code: YEFT, Evaluation Type: Evaluation A (Pre-1980)) is listed as “no conclusion”.

`CN(C)c1ccc(C(=N)c2ccc(N(C)C)cc2)cc1`: the mutagenic call is “active; positive” under setting [1]; “no conclusion” (Species/Cell Type: Mammalian polychromatic erythrocytes, Assay Type: Micronucleus test, chromosome aberrations, Assay Code: MNTT, Evaluation Type: Evaluation A (Pre-1980)); “active; positive” (Species/Cell Type: Nonhuman, Assay Type: Sister-chromatid exchange (SCE) in vitro, Assay Code: SC2+*, Activation: With metabolic activation, Evaluation Type: Evaluation B (Post-1980)); “active; positive” under setting [2]; “active; positive” (Species/Cell Type: Saccharomyces cerevisiae, Assay Type: Mitotic recombination or gene conversion, Assay Code: YEH+, Evaluation Type: Evaluation A (Pre-1980)); “inactive; negative” under setting [3]. Also, the mutagenic call (Species/Cell Type: Syrian hamster embryo (SHE) cells, Assay Type: Cell transformation, clonal assay, Assay Code: CTCT, Evaluation Type: Evaluation A (Pre-1980)) is on record as “no conclusion”. Also, the call (Species/Cell Type: Nonhuman, Assay Code: CCG+L, Evaluation Type: Evaluation A (Pre-1980)) was “active; positive”.

For `CCN(Cc1cccc(S(=O)(=O)O)c1)c1ccc(C(=C2C=CC(=[N+](CC)Cc3cccc(S(=O)(=O)[O-])c3)C=C2)c2ccc(S(=O)(=O)O)cc2)cc1`, the mutagenic call is, setting by setting: (Species/Cell Type: Bacillus subtilis (H17 vs M45), Assay Type: Rec-assay, spot test, DNA effects (bacterial DNA repair), Assay Code: REWT, Evaluation Type: Evaluation A (Pre-1980)) “no conclusion”; (Species/Cell Type: Bacillus subtilis (H17 vs M45T), Assay Type: Rec-assay, spot test, DNA effects (bacterial DNA repair), Assay Code: REXT, Evaluation Type: Evaluation A (Pre-1980)) “no conclusion”; under setting [3], “inactive; negative”.

With `c1ccc2c(c1)Sc1ccccc1N2CCCN1CCNCC1`, the mutagenic call is recorded as “no conclusion” (Species/Cell Type: Human lymphocytes, Assay Type: Sister-chromatid exchange (SCE) in vitro, Assay Code: SCLT, Evaluation Type: Evaluation B (Post-1980)) and “no conclusion” (Species/Cell Type: Human, Assay Type: Sister-chromatid exchange (SCE) in vitro, Assay Code: SC1T, Evaluation Type: Evaluation B (Post-1980)).

For `O=P1(N2CC2)NC2CCCC3CCCC(N1)C32` (configuration not stated), the mutagenic call under setting [4] is “active; positive”.

On to `O[As](O)O`, for which the mutagenic call is “inactive; negative” (Species/Cell Type: Escherichia coli WP2, Assay Type: Tryptophan reverse gene mutation, Assay Code: WP2-, Evaluation Type: Evaluation A (Pre-1980)) and “active; positive” (Species/Cell Type: Human lymphocytes or leukocytes, Assay Type: Chromosome aberrations in vitro, Assay Code: CY7+, Evaluation Type: Evaluation A (Pre-1980)).

`CCC(=O)Oc1ccc(/C(CC)=C(\CC)c2ccc(OC(=O)CC)cc2)cc1`: the mutagenic call by setting is: (Species/Cell Type: Human lymphocytes, Assay Type: Sister-chromatid exchange (SCE) in vitro, Assay Code: SCL+, Evaluation Type: Evaluation B (Post-1980)) “active; positive”; (Species/Cell Type: Human, Assay Type: Sister-chromatid exchange (SCE) in vitro, Assay Code: SC1+, Evaluation Type: Evaluation B (Post-1980)) “active; positive”; (Species/Cell Type: Nonhuman, Assay Type: Sister-chromatid exchange (SCE) in vivo, Assay Code: SC3T, Evaluation Type: Evaluation B (Post-1980)) “no conclusion”; (Species/Cell Type: Saccharomyces cerevisiae, Assay Type: Aneuploidy, chromosome aberrations, Assay Code: YEN+, Evaluation Type: Evaluation A (Pre-1980)) “active; positive”.

`O=Nc1ccc2ccccc2c1`: the mutagenic call under setting [5] was “active; positive”.

Regarding `Cc1ccc2cc3c(c4c2c1CC4)C1OC1c1ccccc1-3` (configuration not stated), the mutagenic call was “active; positive” (Species/Cell Type: Chinese hamster lung (V79) cells, Assay Type: Forward gene mutation at the HPRT or ouabain locus, Assay Code: V79+, Evaluation Type: Evaluation A (Pre-1980)); “active; positive” under setting [4]; “active; positive” (Species/Cell Type: Mouse prostate cells, Assay Type: Cell transformation, Assay Code: CTM+, Evaluation Type: Evaluation A (Pre-1980)); “active; positive” (Species/Cell Type: Syrian hamster embryo (SHE) cells, Assay Type: Cell transformation, clonal assay, Assay Code: CTC+, Evaluation Type: Evaluation A (Pre-1980)). Further, the call (Species/Cell Type: Nonhuman, Assay Code: CCGT, Evaluation Type: Evaluation A (Pre-1980)) was “no conclusion”.

On to `C/C=C/C=C/C#C/C=C/C=C/CCCCCOC(C)=O`, for which, for the setting “Species/Cell Type: Nonhuman, Assay Type: Sister-chromatid exchange (SCE) in vitro, Assay Code: SC2T, Evaluation Type: Evaluation B (Post-1980)”, the mutagenic call was “no conclusion”.

For the compound `Cc1cc(O)c2c(c1)C(=O)c1cc(O)cc(O)c1C2=O`, the mutagenic call (Species/Cell Type: Bacillus subtilis (H17 vs M45), Assay Type: Rec-assay, spot test, DNA effects (bacterial DNA repair), Assay Code: REW-, Evaluation Type: Evaluation A (Pre-1980)) is “inactive; negative” and the mutagenic call (Species/Cell Type: Escherichia coli polA (W3119 vs P3478), Assay Type: Rec-assay, DNA effects (bacterial DNA repair), Assay Code: RE1T, Evaluation Type: Evaluation A (Pre-1980)) was “no conclusion”.

Regarding `CCCCCc1cc(O)cc(O)c1`, the mutagenic call (Species/Cell Type: Human lymphocytes, Assay Type: Micronucleus test in vitro, chromosome aberrations, Assay Code: MN7+, Evaluation Type: Evaluation A (Pre-1980)) is “active; positive”.

Turning to `CCCCCCCCCCCCCC(=O)N(OC(C)=O)c1ccc2c(c1)Cc1ccccc1-2`, the mutagenic call (Species/Cell Type: Human diploid fibroblasts, Assay Type: Unscheduled DNA synthesis (UDS) in vitro, DNA effects, Assay Code: UDH+, Evaluation Type: Evaluation A (Pre-1980)) was “active; positive” and the mutagenic call under setting [5] was “active; positive”.

As to `Clc1nc(Cl)nc(Nc2ccccc2Cl)n1`, the mutagenic call (Species/Cell Type: Fischer rat embryo (RLV/1706) cells, Assay Type: Cell transformation, viral enhanced, Assay Code: CTR+, Evaluation Type: Evaluation A (Pre-1980)) was “active; positive”. Moreover, the call (Species/Cell Type: Nonhuman, Assay Code: CCG-, Evaluation Type: Evaluation A (Pre-1980)) is “inactive; negative”.

As to `CCN1CC[C@@H]2[C@@H](c3ccc(C)cc3)c3cc(C)ccc3[C@@H]2C1`, the mutagenic call was “inactive; negative” (Species/Cell Type: Mouse, Sex: Male, Assay Type: Sperm morphology, Assay Code: SPI-, Evaluation Type: Evaluation A (Pre-1980)); “inactive; negative” under setting [6]; “no conclusion” under setting [7].

Consider `O=C1c2ccccc2C(=O)c2c(NCCNCCO)ccc(O)c21`, for which the mutagenic call (Species/Cell Type: Nonhuman, Assay Type: Sister-chromatid exchange (SCE) in vitro, Assay Code: SC2+, Evaluation Type: Evaluation B (Post-1980)) is “active; positive”.

As to `CCCCCCCCCC(=O)OCCCN1CCN(C2Cc3ccccc3Sc3ccc(SC)cc32)CC1` (configuration not stated), the mutagenic call under setting [6] is “inactive; negative”.

For `CC(=O)Nc1nc(-c2ccc([N+](=O)[O-])s2)cs1`, the mutagenic call under setting [7] is listed as “no conclusion”.

As to `CCOC(=O)COc1ccc(Br)cc1CCl` (tested in a mixture with another compound), the mutagenic call (Species/Cell Type: Saccharomyces cerevisiae, Assay Type: Reverse gene mutation, Assay Code: YERT, Evaluation Type: Evaluation A (Pre-1980)) was “no conclusion”.

Regarding `O[C@@H]([C@H](O)[C@H](O)CBr)[C@H](O)CBr`, for the setting “Species/Cell Type: Nonhuman, Assay Type: Sister-chromatid exchange (SCE) in vivo, Assay Code: SC3+D, Dose Response: With dose response, Evaluation Type: Evaluation B (Post-1980)”, the mutagenic call is “active; positive”.

With `c1ccc2c(c1)-c1cccc3c1c-2cc1ccccc13`, the call under setting [8] is “active; positive”. Moreover, the mutagenic call is, setting by setting: under setting [2], “active; positive”; (Species/Cell Type: Nonhuman, Assay Type: Sister-chromatid exchange (SCE) in vivo, Assay Code: SC3T, Evaluation Type: Evaluation A (Pre-1980)) “no conclusion”.

As for `CC(=O)Nc1ccc(CCc2ccccc2)cc1`, the mutagenic call under setting [7] is “no conclusion”.

For the compound `ClCC(Br)CBr` (configuration not stated), the mutagenic call was “active; positive” under setting [1]; “active; positive” (Species/Cell Type: Human, Sex: Male, Assay Type: Sperm morphology, Assay Code: SPH+, Evaluation Type: Evaluation A (Pre-1980)); “active; positive” (Species/Cell Type: Nonhuman, Assay Type: Sister-chromatid exchange (SCE) in vitro, Assay Code: SC2+D, Dose Response: With dose response, Evaluation Type: Evaluation B (Post-1980)); “active; positive” under setting [5]; “inactive; negative” (Species/Cell Type: Salmonella typhimurium, Assay Type: Forward and reverse gene mutation, body fluid assay, Assay Code: BFU-, Evaluation Type: Evaluation A (Pre-1980)). Moreover, the call under setting [8] is “active; positive”.

Turning to `CCCCC(CC)COC(=O)c1ccccc1C(=O)OCC(CC)CCCC` (configuration not stated), the call under setting [8] was “active; positive”. The mutagenic call (Species/Cell Type: Nonhuman, Assay Type: Sister-chromatid exchange (SCE) in vitro, Assay Code: SC2T, Evaluation Type: Evaluation A (Pre-1980)) was “no conclusion” and the mutagenic call (Species/Cell Type: Rodents, Sex: Male, Assay Type: Dominant lethal test, Assay Code: DLT+, Evaluation Type: Evaluation A (Pre-1980)) is “active; positive”.

Regarding `O=[N+]([O-])c1ccc2[nH]ncc2c1`, under setting [5], the mutagenic call was “active; positive”.

(Values after PubChem BioAssay AID1259408 (Genetic Toxicology Data Bank (GENE-TOX), 2018).)
